Assay results as given in patent US6436902B1, “Therapeutic preparations for inhalation” (AstraZeneca AB, priority 1994, dated 2002).

Tests used:
[1] = Pharmacokinetic study: plasma concentration of PTH in dogs after inhalation of dry powder aerosol (RIA); format: in vivo, Beagle dogs; settings: for Shape of serum/plasma profile after inhalation: dry powder aerosol inhaled via endotracheal tube; for Plasma concentration of PTH: PTH 1-84, inhaled dose 14 μg/kg
Procedure: The powder formulations were compressed in dust containers and generated continuously as dry powder aerosols by a Wright Dust Feed (WDF). The aerosols were generated by scraping off the formulations from the tablets in the dust containers. The mass flow through the WDF was 8.01/min.
The inhaled dose (ID) was determined by measuring the inspiratory tidal volume (ITV) and the PTH concentration during inhalation.
Beagle dogs (n=5, at each formulation) were starved for 16 hours before inhalation and the experiments were performed in the mornings.
Venous blood samples for determination of PTH concentration were taken from the jugular vein into heparinized vacutainer tubes (2 ml). The samples were collected before dosing and at 10, 15, 20, 30, 40, 60, 90, 120, 240 and 360 minutes after start (t=0) of inhalation. The whole blood samples were centrifuged immediately, alternatively kept in ice water for maximum 20 minutes before centrifugation, and the plasma (1 ml) was sampled for PTH analysis. PTH in plasma was analyzed using radioimmunoassay (RIA) kits.

[2] = rats, intratracheal (IT) administration, cited from earlier work; for Shape of serum profile: 90 minutes experiment
[3] = tested on: ovariectomized osteopenic rats; test: Bone effect: mineral density of the distal femur in ovariectomized osteopenic rats; format: in vivo; settings: inhalation, 4 weeks of administration starting 6 weeks post ovariectomy
Procedure: The bone effect is measured in ovariectomized osteopenic rats as mineral density as weight/volume of the distal femur after 4 weeks of administration; starting 6 weeks post ovariectomy.

**Q.** Which level at time molar at 10 min ([1]; beagle, dog, plasma, inhaled or intranasal, 4 ug/kg, PTH 1-34, inhaled dose 4.0 μg/kg, 10 min after start of inhalation) does the source give for CC[C@H](C)[C@H](NC(=O)[C@H](CCC(=O)O)NC(=O)[C@H](CO)NC(=O)[C@@H](NC(=O)[C@@H](N)CO)C(C)C)C(=O)N[C@@H](CCC(N)=O)C(=O)N[C@@H](CC(C)C)C(=O)N[C@@H](CCSC)C(=O)N[C@@H](Cc1cnc[nH]1)C(=O)N[C@@H](CC(N)=O)C(=O)N[C@@H](CC(C)C)C(=O)NCC(=O)N[C@@H](CCCCN)C(=O)N[C@@H](Cc1cnc[nH]1)C(=O)N[C@@H](CC(C)C)C(=O)N[C@@H](CC(N)=O)C(=O)N[C@@H](CO)C(=O)N[C@@H](CCSC)C(=O)N[C@@H](CCC(=O)O)C(=O)N[C@@H](CCCN=C(N)N)C(=O)N[C@H](C(=O)N[C@@H](CCC(=O)O)C(=O)N[C@@H](Cc1c[nH]c2ccccc12)C(=O)N[C@@H](CC(C)C)C(=O)N[C@@H](CCCN=C(N)N)C(=O)N[C@@H](CCCCN)C(=O)N[C@@H](CCCCN)C(=O)N[C@@H](CC(C)C)C(=O)N[C@@H](CCC(N)=O)C(=O)N[C@@H](CC(=O)O)C(=O)N[C@H](C(=O)N[C@@H](Cc1cnc[nH]1)C(=O)N[C@@H](CC(N)=O)C(=O)N[C@@H](Cc1ccccc1)C(=O)O)C(C)C)C(C)C [PTH 1-34] here?
**A.** The level at time molar at 10 min was 0.0304 nM.

**Q.** And the level at time molar at 0.25 h ([1]; beagle, dog, plasma, inhaled or intranasal, 4 ug/kg, PTH 1-34, inhaled dose 4.0 μg/kg, 15 min after start of inhalation)?
**A.** The level at time molar at 0.25 h was 0.0474 nM.

**Q.** What about the level at time molar at 20 min ([1]; beagle, dog, plasma, inhaled or intranasal, 4 ug/kg, PTH 1-34, inhaled dose 4.0 μg/kg, 20 min after start of inhalation) of the same compound?
**A.** The level at time molar at 20 min was 0.0496 nM.

**Q.** And the level at time molar at 0.5 h ([1]; beagle, dog, plasma, inhaled or intranasal, 4 ug/kg, PTH 1-34, inhaled dose 4.0 μg/kg, 30 min after start of inhalation)?
**A.** Its level at time molar at 0.5 h is 0.0446 nM.

**Q.** And the level at time molar at 40 min ([1]; beagle, dog, plasma, inhaled or intranasal, 4 ug/kg, PTH 1-34, inhaled dose 4.0 μg/kg, 40 min after start of inhalation)?
**A.** The level at time molar at 40 min was 0.0362 nM.

**Q.** And the level at time molar at 1 h ([1]; beagle, dog, plasma, inhaled or intranasal, 4 ug/kg, PTH 1-34, inhaled dose 4.0 μg/kg, 60 min after start of inhalation)?
**A.** Its level at time molar at 1 h is 0.026 nM.

**Q.** And the level at time molar at 1.5 h ([1]; beagle, dog, plasma, inhaled or intranasal, 4 ug/kg, PTH 1-34, inhaled dose 4.0 μg/kg, 90 min after start of inhalation)?
**A.** Its level at time molar at 1.5 h is 0.017 nM.

**Q.** And the level at time molar at 2 h ([1]; beagle, dog, plasma, inhaled or intranasal, 4 ug/kg, PTH 1-34, inhaled dose 4.0 μg/kg, 120 min after start of inhalation)?
**A.** Its level at time molar at 2 h is 0.0126 nM.

**Q.** And the level at time molar at 4 h ([1]; beagle, dog, plasma, inhaled or intranasal, 4 ug/kg, PTH 1-34, inhaled dose 4.0 μg/kg, 240 min after start of inhalation)?
**A.** The level at time molar at 4 h was 6 pM.

**Q.** What about the level at time molar at 6 h ([1]; beagle, dog, plasma, inhaled or intranasal, 4 ug/kg, PTH 1-34, inhaled dose 4.0 μg/kg, 360 min after start of inhalation) of the same compound?
**A.** The level at time molar at 6 h was 7.6 pM.

**Q.** And the level at time molar at 0 h ([1]; beagle, dog, plasma, inhaled or intranasal, 4 ug/kg, PTH 1-34, inhaled dose 4.0 μg/kg, time 0 min (before dosing))?
**A.** Its level at time molar at 0 h is 8 pM.

**Q.** What about the “Shape of serum/plasma profile after inhalation” value (“Shape of serum/plasma profile” below) [1] of the same compound?
**A.** Its value is “pulsatile serum profile”.

**Q.** What about the “Shape of serum profile” value [2] of the same compound?
**A.** Its value is “activity diminishing rapidly thereafter”.

**Q.** What about the “Time of serum peak” value [2] of the same compound?
**A.** Its value is 15 min.

**Q.** With “PTH 1-84: Human parathyroid hormone, 84 amino acid protein (SEQ ID NO: 1); given as micronised dry powder with lactose and citrate” as the compound, how does the “Plasma concentration of PTH” value ([1]; 10 min after start of inhalation) read?
**A.** Its value is 8.3 pM.

**Q.** And the “Plasma concentration of PTH” value ([1]; 15 min after start of inhalation)?
**A.** The value was 11.4 pM.

**Q.** And the “Plasma concentration of PTH” value ([1]; 20 min after start of inhalation)?
**A.** The value was 11.6 pM.

**Q.** What about the “Plasma concentration of PTH” value ([1]; 30 min after start of inhalation) of the same compound?
**A.** Its value is 9.6 pM.

**Q.** And the “Plasma concentration of PTH” value ([1]; 40 min after start of inhalation)?
**A.** The value was 7.9 pM.

**Q.** And the “Plasma concentration of PTH” value ([1]; 60 min after start of inhalation)?
**A.** The value was 5.8 pM.

**Q.** And the “Plasma concentration of PTH” value ([1]; 90 min after start of inhalation)?
**A.** Its value is 4.1 pM.

**Q.** What about the “Plasma concentration of PTH” value ([1]; 120 min after start of inhalation) of the same compound?
**A.** Its value is 3.0 pM.

**Q.** What about the “Plasma concentration of PTH” value ([1]; 360 min after start of inhalation) of the same compound?
**A.** Its value is 2.6 pM.

**Q.** What about the “Plasma concentration of PTH” value ([1]; time 0 min (before dosing)) of the same compound?
**A.** Its value is 3.4 pM.

**Q.** And the “Shape of serum/plasma profile” value [1]?
**A.** Its value is “pulsatile serum profile”.

**Q.** And the “Shape of serum/plasma profile” value ([1]; listed as full-length PTH)?
**A.** Its value is “pulsative plasma profile”.

**Q.** What about the “Effect on femur bone formation (mineral density of the distal femur)” value [3] of the same compound?
**A.** Its value is “significant effect on femur bone formation”.

**Q.** What about the “Shape of serum profile” value [2] of the same compound?
**A.** Its value is “plateau which did not diminish significantly during the 90 minutes”.
